Structures can show the parent of a compound that is named as a salt. Where two headings read alike, the source gives them in different places.
System: acetylcholine-induced abdominal constriction
Assay: animal or person
Format: in vivo, mice
Conditions: Mus musculus; for inhibition in vivo at 300 mg/kg: 300 mg./kg. oral; for ED50: read-out: Ach ED50; for inhibition in vivo at 100 mg/kg: 100 mg./kg. oral
[1] = po, read-out: Ach percent inhibition
[2] = sc, 30 mg./kg. s.c., read-out: Ach percent inhibition
[3] = po, 30 mg./kg. oral, read-out: Ach percent inhibition

Row | SMILES | ED50 (po) [mg/kg] | inhibition in vivo at 100 mg/kg [1] [%] | further results
1 | Cc1c(C(=O)c2ccc(NS(C)(=O)=O)cc2)c2ccccc2n1CCN1CCOCC1 [Example 5E] | – | – | inhibition in vivo at 150 mg/kg (po, 150 mg./kg. oral, read-out: Ach percent inhibition): 38%; inhibition in vivo at 300 mg/kg [1]: 40%
2 | CCC(=O)Nc1ccc(C(=O)c2c(C)n(CCN3CCOCC3)c3ccccc23)cc1 [Example 5F] | 76 | – | –
3 | CCCCNc1ccc(C(=O)c2c(C)n(CCN3CCOCC3)c3ccccc23)cc1 [Example 8B, 2-methyl-3-(4-butylaminobenzoyl)-1-[2-(4-morpholinyl)ethyl]-1H-indole] | – | 35 | –
4 | Cc1c(C(=O)c2ccc(NC(N)=O)cc2)c2ccccc2n1CCN1CCOCC1 [Example 9, 2-methyl-3-(4-carbamylaminobenzoyl)-1-[2-(4-morpholinyl)ethyl]-1H-indole] | – | – | inhibition in vivo at 300 mg/kg [1]: 27%; inhibition in vivo at 30 mg/kg [2]: 20%
5 | Cc1c(C(=O)c2ccc(CNC(N)=NC#N)cc2)c2ccccc2n1CCN1CCOCC1 [Example 10, 2-methyl-3-(4-cyanoguanidinylmethylbenzoyl)-1-[2-(4-morpholinyl)ethyl]-1H-indole] | – | – | inhibition in vivo at 30 mg/kg [3]: 0%; inhibition in vivo at 30 mg/kg [2]: 7%
6 | Cc1c(C(=O)c2ccc(C=O)cc2)c2ccccc2n1CCN1CCOCC1 [Example 11, 2-methyl-3-(4-formylbenzoyl)-1-[2-(4-morpholinyl)ethyl]-1H-indole] | – | – | inhibition in vivo at 30 mg/kg [3]: 20%; inhibition in vivo at 30 mg/kg [2]: 13%
7 | COc1ccc(C(=NO)c2c(C)n(CCN3CCOCC3)c3ccccc23)cc1 [Example 13A, 2-methyl-3-(4-methoxybenzoyl)-1-[2-(4-morpholinyl)ethyl]-1H-indole oxime] | 139 | – | –
8 | Cc1c(C(=NO)c2ccccc2F)c2cc(F)ccc2n1CCCN1CCOCC1 [Example 13B, 5-fluoro-3-(2-fluorobenzoyl)-2-methyl-1-[3-(4-morpholinyl)propyl]-1H-indole oxime] | – | 0 | –
9 | Cc1c(/C(=N\O)c2ccccc2F)c2ccccc2n1CCN1CCOCC1 [Example 13C, (E)-3-(2-fluorobenzoyl)-2-methyl-1-[2-(4-morpholinyl)ethyl]-1H-indole oxime] | – | 20 | –
10 | Cc1c(C(=O)c2ccc(-n3cccc3)cc2)c2ccccc2n1CCN1CCOCC1 [Example 14, 2-methyl-3-[4-(1H-pyrrol-1-yl)benzoyl]-1-[2-(4-morpholinyl)ethyl]-1H-indole] | – | 40 | –
11 | COc1ccc(C(=O)c2c(C)n(CC[N+]3([O-])CCOCC3)c3ccccc23)cc1 [Example 15, 2-methyl-3-(4-methoxybenzoyl)-1-[2-(4-morpholinyl)ethyl]-1H-indole/N(MOR)-oxide] | 155 | – | –
12 | Cc1c(C(=O)c2ccccc2O)c2ccccc2n1CCN1CCOCC1 [Example 16A, 2-methyl-3-(2-hydroxybenzoyl)-1-[2-(4-morpholinyl)ethyl]-1H-indole] | – | 10 | –
13 | Cc1c(C(=O)c2ccc(O)cc2)c2cc(F)ccc2n1CCCN1CCOCC1 [Example 16B, 5-fluoro-2-methyl-3-(4-hydroxybenzoyl)-1-[3-(4-morpholinyl)propyl]-1H-indole hydrochloride] | – | 20 | –
14 | COc1ccc(C(=O)c2c(C)n(CCN3CCOCC3)c3cc(O)ccc23)cc1 [Example 18, 6-hydroxy-2-methyl-3-(4-methoxybenzoyl)-1-[2-(4-morpholinyl)ethyl]-1H-indole hydrochloride hydrate (3:4)] | – | 30 | –
15 | COc1ccc(C(=O)C=Cc2c(C)n(CCN3CCOCC3)c3ccccc23)cc1 [Example 19, 1-{2-methyl-1-[2-(4-morpholinyl)ethyl]-1H-indol-3-yl}-3-(4-methoxyphenyl)propen-3-one monohydrochloride] | – | 40 | –
16 | Cc1ccccc1C=CC(=O)c1c(C)n(CCN2CCOCC2)c2ccccc12 [Example 20A, 3-(2-methylcinnamoyl)-2-methyl-1-[2-(4-morpholinyl)ethyl]-1H-indole] | 128 | – | –
17 | Cc1c(C(=O)C=Cc2ccccc2F)c2ccccc2n1CCN1CCOCC1 [Example 20B, 3-(2-fluorocinnamoyl)-2-methyl-1-[2-(4-morpholinyl)ethyl]-1H-indole] | – | 40 | –
18 | COc1ccc(C(=O)c2c(C)n(CCN3CCCC(OC(C)=O)C3)c3ccccc23)cc1.O=C(O)/C=C\C(=O)O (centres unmarked) [Example 21, 1-[2-(3-acetoxy-1-piperidinyl)ethyl]-2-methyl-3-(4-methoxybenzoyl)-1H-indole maleate (1:1)] | 31 | – | –
19 | CCOC(=O)N1CCN(CCn2c(C)c(C(=O)c3ccc(OC)cc3)c3ccccc32)CC1.O=C(O)/C=C\C(=O)O [Example 22, 1-[2-(4-carbethoxy-1-piperazinyl)ethyl]-2-methyl-3-(4-methoxybenzoyl)-1H-indole maleate (1:1)] | 66.8 | – | –
20 | COc1ccc(C(=O)c2c(C)n(CCN3CCN(C(C)=O)CC3)c3ccccc23)cc1.O=C(O)/C=C\C(=O)O [Example 23A, 1-[2-(4-acetyl-1-piperazinyl)ethyl]-2-methyl-3-(4-methoxybenzoyl)-1H-indole maleate (1:1)] | 85 | – | –
21 | COc1ccc(C(=O)c2c(C)n(CCCN3CCN(C(C)=O)CC3)c3ccc(F)cc23)cc1.CS(=O)(=O)O [Example 23B, 5-fluoro-2-methyl-3-(4-methoxybenzoyl)-1-[3-(4-acetyl-1-piperazinyl)propyl]-1H-indole methanesulfonate] | 39 | – | –
22 | COc1ccc(C(=O)c2c(C)n(CCCN)c3ccc(F)cc23)cc1.O=C(O)/C=C\C(=O)O [Example 25A, 1-(3-aminopropyl)-5-fluoro-2-methyl-3-(4-methoxybenzoyl)-1H-indole maleate (1:1)] | 82.5 | – | –

Row | SMILES | ED50 (po) [mg/kg] | inhibition in vivo at 100 mg/kg [1] [%] | further results
23 | COc1ccc(C(=O)c2c(C)n(CCN)c3ccccc23)cc1.O=C(O)/C=C\C(=O)O [Example 25B, 1-(2-aminoethyl)-2-methyl-3-(4-methoxybenzoyl)-1H-indole maleate] | 42 | – | –
24 | COCCNc1ccc(C(=O)c2c(C)n(CCN3CCOCC3)c3ccccc23)cc1 [Example 26A, 2-methyl-3-[4-(2-methoxyethylamino)benzoyl]-1-[2-(4-morpholinyl)ethyl]-1H-indole] | – | 40 | –
25 | Cc1c(C(=O)c2ccc(N3CCCC(O)C3)cc2)c2ccccc2n1CCN1CCOCC1 (centres unmarked) [Example 26B] | – | 40 | –
26 | Cc1c(C(=O)c2ccc(N3CCNCC3)cc2)c2ccccc2n1CCN1CCOCC1 [Example 26C] | – | 30 | –
27 | Cc1c(C(=O)c2ccc(N3CCC(O)CC3)cc2)c2ccccc2n1CCN1CCOCC1 [Example 26D] | – | 30 | –
28 | Cc1c(C(=O)c2ccc(-n3ccnc3)cc2)c2ccccc2n1CCN1CCOCC1 [Example 26E] | 73.1 | – | –
29 | Cc1c(C(=O)c2ccc(-n3ccnc3)cc2)c2cc(F)ccc2n1CCCN1CCOCC1 [Example 26F] | 61 | – | –
30 | Cc1c(C(=O)c2ccc(N3CCOCC3)cc2)c2ccccc2n1CCN1CCOCC1 [Example 26G] | – | 20 | –
31 | COc1ccc(C(=O)c2c(C)n(CCN3CCNCC3)c3ccccc23)cc1.CS(=O)(=O)O.CS(=O)(=O)O [Example 27A, 2-methyl-3-(4-methoxybenzoyl)-1-[2-(1-piperazinyl)ethyl]-1H-indole dimethanesulfonate] | 20.7 | – | –
32 | COc1ccc(C(=O)c2c(C)n(CCNCCO)c3ccccc23)cc1 [Example 27B, 1-[2-(2-hydroxyethylamino)ethyl]-2-methyl-3-(4-methoxybenzoyl)-1H-indole] | 59.8 | – | –
33 | COc1ccc(C(=O)c2c(C)n(CCN3CCCC(N)C3)c3ccccc23)cc1.O=C(O)/C=C\C(=O)O.O=C(O)/C=C\C(=O)O (centres unmarked) [Example 27C, 1-[2-(3-amino-1-piperidinyl)ethyl]-2-methyl-3-(4-methoxybenzoyl)-1H-indole maleate (1:2)] | 29.4 | – | –
34 | COc1ccc(C(=O)c2c(C)n(CCCN3CCNCC3)c3ccc(F)cc23)cc1.CS(=O)(=O)O.CS(=O)(=O)O [Example 27D, 5-fluoro-2-methyl-3-(4-methoxybenzoyl)-1-[3-(1-piperazinyl)propyl]-1H-indole dimethanesulfonate] | 30 | – | –
35 | COc1ccc(C(=O)c2c(C)n(CCCNCCCCl)c3ccccc23)cc1 [Example 28, 1-[3-(3-chloropropylamino)propyl]-2-methyl-3-(4-methoxybenzoyl)-1H-indole hydrochloride] | – | 90 | –
36 | COc1ccc(C(=O)c2c(C)n(CCCN3CC[S+]([O-])CC3)c3ccc(F)cc23)cc1 [Example 29A, 5fluoro-2-methyl-3-(4-methoxybenzoyl)-1-[3-(4-thiomorpholinyl)propyl]-1H-indole S-oxide maleate] | – | 60 | –
37 | COc1ccc(C(=O)c2c(C)n(CCN3CC[S+]([O-])CC3)c3ccccc23)cc1 [Example 29B, 2-methyl-3-(4-methoxybenzoyl)-1-[2-(4-thiomorpholinyl)ethyl]-1H-indole S-oxide maleate] | – | 60 | –
38 | COc1ccc(C(=O)c2c(C)n(CC[N+]3([O-])CC[S+]([O-])CC3)c3ccccc23)cc1 (centres unmarked) [Example 29C, 2-methyl-3-(4-methoxybenzoyl)-1-[2-(4-thiomorpholinyl)ethyl]-1H-indole S,N-dioxide dihydrate] | – | 0 | –
39 | Cc1c(C(=O)c2ccccc2)c2cc(O)ccc2n1CCN1CCOCC1 [Example 30, 3-benzoyl-5-hydroxy-2-methyl-1-[2-(4-morpholinyl)ethyl]-1H-indole] | – | 10 | –
40 | CCN(CC)CC(O)Cn1c(C)c(C(=O)c2ccc(OC)cc2)c2ccccc21 (centres unmarked) [Example 31-O] | – | 100 | –
41 | COc1ccc(C(=O)c2c(C)n(CC(O)CN3CCOCC3)c3ccc(F)cc23)cc1.Cl.O (centres unmarked) [Example 31A, 1-[2-hydroxy-3-(4-morpholinyl)propyl]-5-fluoro-2-methyl-3-(4-methoxybenzoyl)-1H-indole hydrochloride hydrate] | 58 | – | –
42 | COc1ccc(C(=O)c2c(C)n(CC(O)CN3CCCC3)c3ccc(F)cc23)cc1 (centres unmarked) [Example 31C] | 53 | – | –
43 | Cc1c(C(=O)c2cccc3ccccc23)c2ccccc2n1CC(O)CN1CCCC1 (centres unmarked) [Example 31F] | – | – | inhibition in vivo at 3 mg/kg (iv, 3 mg./kg. i.v., read-out: Ach percent inhibition): 0%

— US4581354A, “3-arylcarbonyl- and 3-cycloalkylcarbonyl-1-aminoalkyl-1H-indoles, compositions and use” (Sterling Drug Inc., priority 1985, dated 1986)
